Consider 34 compounds from patent publication US9200046B2, “Reporter system for high throughput screening of compounds and uses thereof” (priority 2011, dated 2015).

Read-outs that look alike come from different tables or passages of the source.

This experiment addresses Nrf2-Keap1 complex (Homo sapiens, UniProt Q14145). The experiment can be described thus: cell-based. Conditions: for activation at 16 µM / activation at 32 µM: 3 h; for activation at 16 µM: read-out: Activation 100 nL; for activation at 32 µM: read-out: Activation 200 nL. The format is cell-based.
[1] abbreviates: Table 2, 100 nL compound, screen run at 16 and 32 μM, 3 hr.
Setting [2] is: Table 2, 200 nL compound, screen run at 16 and 32 μM, 3 hr.
Setting [3] is: Table 1A, 100 nL compound, screen run at 16 and 32 μM, 3 hr.
The mark [4] stands for this setting: Table 1A, 200 nL compound, screen run at 16 and 32 μM, 3 hr.

Nrf2-Keap1 complex, sequence (Q14145 whole entry, one chain of several): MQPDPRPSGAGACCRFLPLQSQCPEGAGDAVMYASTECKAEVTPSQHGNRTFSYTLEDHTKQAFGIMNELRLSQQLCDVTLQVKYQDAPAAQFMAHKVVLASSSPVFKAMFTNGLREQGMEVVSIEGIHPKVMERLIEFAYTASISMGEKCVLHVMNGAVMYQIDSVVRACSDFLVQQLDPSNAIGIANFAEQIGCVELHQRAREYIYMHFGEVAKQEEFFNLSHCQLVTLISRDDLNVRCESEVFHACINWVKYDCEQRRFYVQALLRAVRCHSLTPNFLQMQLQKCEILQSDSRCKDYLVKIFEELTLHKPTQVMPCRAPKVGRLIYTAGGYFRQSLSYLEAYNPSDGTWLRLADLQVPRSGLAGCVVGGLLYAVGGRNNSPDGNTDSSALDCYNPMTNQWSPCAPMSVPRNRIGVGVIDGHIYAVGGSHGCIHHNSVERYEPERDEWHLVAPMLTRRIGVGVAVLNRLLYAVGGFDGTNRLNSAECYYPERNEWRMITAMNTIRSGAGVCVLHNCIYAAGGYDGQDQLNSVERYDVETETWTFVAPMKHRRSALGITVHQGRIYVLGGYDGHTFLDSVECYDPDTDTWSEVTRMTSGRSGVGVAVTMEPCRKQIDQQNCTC

On to `O=C(/C=C/C(=O)Oc1ccccc1C(=O)O)Oc1ccccc1C(=O)O` [BISSALICYLFUMARATE], for which the activation at 16 µM was 338% and the activation at 32 µM turned out to be 156%.

On to `CC(=O)O[C@H]1C[C@@H](O)C(C)(C)[C@@H]2C[C@@H](OC(C)=O)[C@]3(C)[C@H](CC[C@@]4(C)[C@@H](c5ccoc5)OC(=O)[C@H]5O[C@@]534)[C@@]12C` [3-DEACETYLKHIVORIN], for which the “Activation 100 nL” value worked out at 94% and the “Activation 200 nL” value turned out to be 72%. Also, the “100 nL (luminescence)” value under setting [1] was determined as 1628. The “200 nL (luminescence)” value under setting [2] is on record as 2102.

Turning to `CNC(=O)Oc1cccc2c1OC(C)(C)O2` [BENDIOCARB], the “100 nL (luminescence)” value is 1532, the “200 nL (luminescence)” value was 2760, the activation at 16 µM came to 87% and the activation at 32 µM was 101%.

With `O=CC=Cc1ccc(O)cc1` [p-HYDROXYCINNAMALDEHYDE], the activation at 16 µM is 63% and the activation at 32 µM is 122%. The “100 nL (luminescence)” value under setting [1] was 1208. For the same compound, under setting [2], the “200 nL (luminescence)” value amounted to 3256.

In the case of `Nc1ncnc2c1ncn2[C@@H]1O[C@H](CO)[C@@H](O)[C@H]1O` [ADENOSINE, reference compound], the “100 nL (luminescence)” value amounted to 1100, the “200 nL (luminescence)” value was 760, the “hit strength in the screen (words)” value is “modest hits” and the activation at 16 µM worked out at 61%. In addition, the activation at 32 µM is 20%.

`COc1c(C)c2c(c(O)c1C/C=C(\C)CCC(=O)O)C(=O)OC2` [MYCOPHENOLICACID, reference compound]: the activation at 16 µM came out at 26% and the activation at 32 µM turned out to be 84%. Also, under setting [1], the “100 nL (luminescence)” value came out at 904. Also, the “200 nL (luminescence)” value under setting [2] is 1428.

For the compound `COc1cc(C/C=C/c2ccccc2)c(OC)cc1O` [VIOLASTYRENE], the activation at 16 µM was 133% and the activation at 32 µM was determined as 50%. For the same compound, under setting [1], the “100 nL (luminescence)” value came to 2388. Further, under setting [2], the “200 nL (luminescence)” value is 1096.

In the case of `Cc1cccc2c3c(ccc12)C1=C(C(=O)C3=O)[C@@H](C)CO1` [DIHYDROTANSHINONEI], the activation at 16 µM stood at 158% and the activation at 32 µM was 5%. Besides, under setting [1], the “100 nL (luminescence)” value is 2480. Besides, the “200 nL (luminescence)” value under setting [2] was 572.

As for `CC1(C)[N+]([O-])=[N+]([O-])C1(C)Br` (stereo not shown), the “Activation 100 nL” value came out at 55% and the “Activation 200 nL” value is on record as 83%. Also, the “100 nL (luminescence)” value under setting [1] is given as 1308. The “200 nL (luminescence)” value under setting [2] is recorded as 1976.

For `CC(=O)Oc1cc(-c2coc3cc(OC(C)=O)c(OC(C)=O)c(OC(C)=O)c3c2=O)cc(OC(C)=O)c1OC(C)=O` [IRIGINOLHEXAACEATATE], the activation at 16 µM worked out at 65% and the activation at 32 µM was determined as 58%. Further, under setting [1], the “100 nL (luminescence)” value came out at 1350. The “200 nL (luminescence)” value under setting [2] came to 1208.

With `COc1cc(O)c2c(=O)c(O)c(-c3ccc(O)c(O)c3)oc2c1` [RHAMNETIN], the activation at 16 µM stood at 138% and the activation at 32 µM turned out to be 47%. Under setting [1], the “100 nL (luminescence)” value stood at 2216. The “200 nL (luminescence)” value under setting [2] is on record as 1536.

Take `C=C[C@@](C)(O)CCC1C(=C)CCC2[C@@](C)(CO)CCC[C@]12C` (stereo partly drawn) [EPI(13)TORULOSOL]: the “Activation 100 nL” value is reported as 27% and the “Activation 200 nL” value turned out to be 0%. Besides, under setting [1], the “100 nL (luminescence)” value was determined as 724. Further, the “200 nL (luminescence)” value under setting [2] came to 448.

With `COc1cc(O)cc(OC)c1OC` [ANTIAROL], the activation at 16 µM was found to be 74% and the activation at 32 µM came to 81%. Besides, under setting [1], the “100 nL (luminescence)” value was determined as 1016. Also, the “200 nL (luminescence)” value under setting [2] is given as 2248.

With `C=C(CC)C(=O)c1ccc(OCC(=O)O)c(Cl)c1Cl` [reference compound], the activation at 16 µM amounted to 139% and the activation at 32 µM stood at 156%. Also, the “100 nL (luminescence)” value under setting [1] stood at 2088. Moreover, the “200 nL (luminescence)” value under setting [2] came to 3604.

On to `CC(=O)NC(C(=O)O)C(C)(C)SN=O` (stereo not shown) [reference compound], for which the “Activation 100 nL” value is recorded as 45% and the “Activation 200 nL” value is listed as 52%. Also, the “100 nL (luminescence)” value under setting [1] came out at 1044. Further, the “200 nL (luminescence)” value under setting [2] was 1120.

As for `Oc1cccc2cccnc12` [8-hydroxyquinoline], the “Neh2-luc reporter activation” value was found to be 60%.

As for `CC1(C)C=CC(=O)[C@@]2(C)C1CC(=O)[C@]1(C)C2CC[C@@]2(C)[C@H](c3ccoc3)OC(=O)C3OC321` (stereo partly shown) [DEACETOXY-7-OXISOGEDUNIN], the “Activation 100 nL” value is listed as 170% and the “Activation 200 nL” value is 178%. The “100 nL (luminescence)” value under setting [1] came to 2960. Under setting [2], the “200 nL (luminescence)” value was 3040.

On to `COC(=O)c1c(C)cc(O)cc1O` [METHYLORSELLINATE], for which the activation at 16 µM was determined as 31% and the activation at 32 µM worked out at 1%. Further, under setting [1], the “100 nL (luminescence)” value turned out to be 640. For the same compound, under setting [2], the “200 nL (luminescence)” value is recorded as 368.

As to `COc1ccc2cc1Oc1ccc(cc1)C[C@H]1c3cc(c(OC)cc3CCN1C)Oc1c(OC)c(OC)cc3c1[C@H](C2)N(C)CC3` [TETRANDRINE], the activation at 16 µM is 85% and the activation at 32 µM amounted to 18%. Further, the “100 nL (luminescence)” value under setting [3] was found to be 1660. Also, under setting [4], the “200 nL (luminescence)” value is reported as 596.

Take `COc1cc(/C=C/CO)ccc1O` [CONIFERYLALCOHOL]: the activation at 16 µM turned out to be 125% and the activation at 32 µM was determined as 79%. Besides, the “100 nL (luminescence)” value under setting [1] was determined as 2032. Besides, the “200 nL (luminescence)” value under setting [2] was 2264.

Consider `C=C[C@@]1(C)CC(=O)[C@]2(O)[C@@]3(C)[C@@H](O)CCC(C)(C)[C@@H]3[C@H](O)[C@H](OC(C)=O)[C@@]2(C)O1` [COLFORSIN, reference compound], for which the activation at 16 µM is 91% and the activation at 32 µM amounted to 120%. Moreover, under setting [1], the “100 nL (luminescence)” value is recorded as 2208. In addition, the “200 nL (luminescence)” value under setting [2] was 2568.

In the case of `COc1c(O)cc2oc3cc(O)c(CC=C(C)C)c(O)c3c(=O)c2c1CC=C(C)C` [alpha-MANGOSTIN], the “100 nL (luminescence)” value stood at 736, the “200 nL (luminescence)” value amounted to 16, the “Activation 100 nL” value came to 28% and the “Activation 200 nL” value is given as −19%.

As for `COc1cc([C@@H]2c3cc4c(cc3[C@H](O)[C@H]3COC(=O)[C@@H]23)OCO4)cc(OC)c1OC` [PICROPODOPHYLLOTOXIN], the activation at 16 µM worked out at 32% and the activation at 32 µM was found to be 57%. Further, the “100 nL (luminescence)” value under setting [1] is reported as 848. In addition, the “200 nL (luminescence)” value under setting [2] is recorded as 1196.

With `COc1ccc2cc1Oc1ccc(cc1)C[C@H]1c3c(cc4c(c3Oc3cc5c(cc3OC)CCN(C)[C@@H]5C2)OCO4)CCN1C` [CEPHARANTHINE, reference compound], the activation at 16 µM came to 98% and the activation at 32 µM amounted to 9%. Moreover, under setting [3], the “100 nL (luminescence)” value worked out at 2348. The “200 nL (luminescence)” value under setting [4] worked out at 584.

With `COc1cc(C)c2c(c1C=O)Oc1c(c(C)c(O)c3c1C(O)OC3=O)OC2=O` (stereo not shown) [[…]], the activation at 16 µM was found to be 56% and the activation at 32 µM came to 65%. Under setting [1], the “100 nL (luminescence)” value worked out at 1114. For the same compound, the “200 nL (luminescence)” value under setting [2] was 1952.

For the compound `COc1ccc2c(c1)OCc1c-2oc2cc(OC)ccc12` [DEHYDROVARIABILIN], the activation at 16 µM was found to be 86% and the activation at 32 µM came out at 39%. Also, under setting [1], the “100 nL (luminescence)” value stood at 1672. Besides, under setting [2], the “200 nL (luminescence)” value stood at 916.

With `CC(=O)O[C@H]1C[C@@H](OC(C)=O)C(C)(C)[C@@H]2CC(=O)[C@]3(C)[C@H](CC[C@@]4(C)[C@H](c5ccoc5)OC(=O)[C@H]5O[C@]543)[C@@]12C` [7-DEACETOXY-7-OXOKHIVORIN], the “Activation 100 nL” value is reported as 168% and the “Activation 200 nL” value is 128%. Moreover, the “100 nL (luminescence)” value under setting [1] came to 2924. The “200 nL (luminescence)” value under setting [2] was 2284.

Consider `C=C1CC[C@@H]2[C@](C)(CO)[C@H](O)CC[C@@]2(C)[C@@H]1C/C=C1/C(=O)OC[C@H]1O` [ANDROGRAPHOLIDE], for which the “100 nL (luminescence)” value was determined as 1404, the “200 nL (luminescence)” value amounted to 708, the activation at 16 µM stood at 78% and the activation at 32 µM worked out at 11%.

Consider `CC(C)=CCc1c2c(c(O)c3c(=O)c(O)c(-c4ccccc4)oc13)C=CC(C)(C)O2` [SERICETIN], for which the activation at 16 µM came to 263% and the activation at 32 µM came to 20%. Also, the “100 nL (luminescence)” value under setting [1] was found to be 2672. For the same compound, under setting [2], the “200 nL (luminescence)” value turned out to be 800.

Regarding `COC(=O)[C@H](O)[C@H]1C(C)(C)[C@H](OC(C)=O)[C@@H]2CC3=C4CC(=O)O[C@@H](c5ccoc5)[C@]4(C)CC[C@@H]3[C@@]1(C)C2=O` [SWIETENOLIDE-3-ACETATE], the “Activation 100 nL” value amounted to 70% and the “Activation 200 nL” value is reported as 115%. Besides, under setting [1], the “100 nL (luminescence)” value stood at 1430. The “200 nL (luminescence)” value under setting [2] is 2088.

As to `COc1ccc2c(c1)OCC(Cc1ccc(OC(C)=O)c(OC)c1)C2=O` (stereo not shown), the “Activation 100 nL” value worked out at 221% and the “Activation 200 nL” value was determined as 70%. For the same compound, the “100 nL (luminescence)” value under setting [1] is listed as 3740. In addition, the “200 nL (luminescence)” value under setting [2] turned out to be 1388.

For the compound `COc1ccc2c(c1)OCC(=Cc1ccc(O)c(O)c1)C2=O`, the “Activation 100 nL” value turned out to be 292% and the “Activation 200 nL” value is given as 169%. The “100 nL (luminescence)” value under setting [1] stood at 4822. Besides, the “200 nL (luminescence)” value under setting [2] came out at 2904.

With `CC(C)c1cccc(=O)c(O)c1` [HINOKITIOL], the activation at 16 µM was 29% and the activation at 32 µM was 1%. For the same compound, the “100 nL (luminescence)” value under setting [1] turned out to be 860. Under setting [2], the “200 nL (luminescence)” value came to 372.

In the case of `CC(=O)O[C@@H]1C[C@H]2C(C)(C)[C@@H](O)CC[C@]2(C)[C@H]2CC[C@@]3(C)[C@H](c4ccoc4)OC(=O)[C@H]4O[C@]43[C@@]21C` [beta-DIHYDROGEDUNOL], the “Activation 100 nL” value came out at 217%, the “Activation 200 nL” value turned out to be 124% and the “Neh2-luc reporter activation” value stood at 220%. Also, under setting [1], the “100 nL (luminescence)” value stood at 2270. Under setting [2], the “200 nL (luminescence)” value is 3252.
